# Assay results published in PubChem BioAssay AID2305 (GlaxoSmithKline (GSK), 2010).
# Test system: P. falciparum 3D7 growth, pLDH absorbance
# Assay: blood-stage malaria parasite growth potency – strain 3D7, dose response (AID 2305)
row,Structure (SMILES),IC50
1,CCC(C)NCc1c(O)ccc2c(CNC(C)CC)c(O)ccc12 (stereo not drawn),590 nM
2,CCCCCC(=O)N1CCOC(CCN2CCc3c(c4ccccc4n3C)C2)(c2ccc(Cl)c(Cl)c2)C1 (stereo not drawn),980 nM
3,O=C(NCCCCN1CCC(c2ccc3c(c2OCCO)CCCC3)CC1)c1sc(-c2ccc(C(F)(F)F)cc2)nc1CO,1050 nM
4,OC(CNCCc1ccccc1)Cn1c2ccc(Cl)cc2c2cc(Cl)ccc21 (stereo not drawn),730 nM
5,Cn1nc(-c2ccc(CNC3CCc4ccccc43)cc2)c2cnc(NCCCN3CCCC3)nc21 (stereo not drawn),1110 nM
6,CCCc1cc(O)c2c3c(c(=O)oc2c1)CN(C)CC3,870 nM
7,CCCCCCCCCC(=O)NCC1CC(Br)=NO1 (stereo not drawn),1050 nM
8,CN(C)CCCOc1ccc(CN2CC[C@H](NC(=O)c3ccc(Cl)c(Cl)c3)C2)cc1Br,760 nM
9,CCN(CC)CCNC(=O)c1ccc(NC(=O)c2cn(-c3ccccc3)nc2-c2cccs2)cc1,260 nM
10,CC(C)(C)NC(=O)c1ccc(Oc2ccc(OC(F)(F)F)cc2)c(NC(=O)C(C)(C)C)c1,980 nM
11,CCN(CC)CCN(Cc1ccc(-c2ccc(C(F)(F)F)cc2)cc1)C(=O)Cn1c(CCc2ccc(F)cc2)nc(=O)c2ccccc21,1070 nM
12,Cc1c(-c2cccc(NC(=O)C(C)(C)Oc3ccc(Cl)cc3)c2)nc2ncccn12,170 nM
13,COc1cccc(NC(=O)Nc2c(-c3cccc(C(F)(F)F)c3)c(C(F)(F)F)nn2C)c1,910 nM
14,COc1cc2c(cc1COc1ccccc1)CCN1Cc3cc(OC)c(OC)cc3CC21 (stereo not drawn),150 nM
15,COc1ccc2ncc(F)c(CCN3CC[C@H](NCc4cc5c(s4)CCCN5)[C@H](O)C3)c2n1,960 nM
16,COC(=O)c1cc(NC(=O)Nc2ccc(Cn3ncc(N4CCCNCC4)c(Cl)c3=O)cc2)cc(C(=O)OC)c1,710 nM
17,CCNc1cc(C(=O)N[C@@H](Cc2ccccc2)[C@H](O)CNC2(C)CCCCC2)cc(N2CCCCS2(=O)=O)c1,160 nM
18,c1ccc2[nH]c(-c3ccc(-c4ccc(CN5CCC(N6CCCCC6)CC5)cc4)s3)nc2c1,150 nM
19,CC(C)CSc1cc(C(=O)Nc2cc(Cl)ccc2O)ccn1,670 nM
20,CC(=O)Nc1ccc(C(=O)Nc2ccc(-c3csc(-c4nc5ccccc5[nH]4)c3)cc2)cn1,590 nM
21,CCc1cn2c3c(cc(C(=O)N[C@@H](Cc4cccc(F)c4)[C@H](O)CNC4CCCCC4)cc13)N(C)S(=O)(=O)CC2,30 nM
22,FC(F)(F)c1ccc2nc(-c3ccc(-c4cccc(CNCc5ccccc5)c4)s3)[nH]c2c1,150 nM
23,CC(O)C1CCCCN1C(=O)c1cccc(-c2cccc(-c3nc4ccccc4[nH]3)c2)c1 (stereo not drawn),530 nM
24,COc1cccc(Nc2c(C(N)=O)cnc3ccc(-c4ccc(S(C)=O)cc4)cc23)c1 (stereo not drawn),190 nM
25,COc1ccc(N2CCN(CCCN3CCN(C(=O)c4ccc(/C=C/c5ccc(Cl)c(Cl)c5)cc4)CC3)CC2)c(OC)c1,910 nM

row,Structure (SMILES),IC50
1,CCOC(C(=O)OCCN(C(C)C)C(C)C)(c1ccccc1)c1ccccc1,870 nM
2,COc1cccc(-c2c(C#N)c(N)nc3c2c(C)nn3-c2ccccc2)c1O,280 nM
3,Cc1cc(NC(=O)c2ccco2)ccc1OC1CCN(Cc2ccccc2)CC1,530 nM
4,CCC(C)CN1CCCN(c2ccc(NC(=O)c3cccs3)cc2)CC1 (stereo not drawn),800 nM
5,CCOC(=O)c1ccc(OCc2ccc(-c3ccccc3)cc2)cc1,810 nM
6,CN1CCCC1CCOc1ccc2c(c1)N(C(=O)Nc1cc(Br)cc(C(F)(F)F)c1)CC2 (stereo not drawn),250 nM
7,CCCCOC(C(=O)OCC1CCCN1C)(c1ccccc1)c1ccccc1 (stereo not drawn),790 nM
8,CCOC(=O)C1CCN(CCCNC(=O)/C(=C/C=C/c2cc3cc(Cl)c(Cl)cc3[nH]2)OC)CC1,1040 nM
9,FC(F)(F)c1ccc2nc(-c3cccc(-c4ccc(CNCC5CCCO5)cc4)c3)[nH]c2c1 (stereo not drawn),280 nM
10,COCCN1CCN(Cc2ccc(-c3ccc(-c4nc5c(C)cccc5[nH]4)s3)cc2)CC1,860 nM
11,O=C1C(c2ccccc2)=C(Nc2cc(Cl)cc(Cl)c2)c2ccccc21,370 nM
12,CN(C)CC(=O)Nc1ccc(-c2ccc3ccnc(N)c3c2)cc1,30 nM
13,Cc1nc(C)c(-c2ccc(Oc3ccc(OC(F)(F)F)cc3)cc2)c(OC(=O)N(CCNC(C)C)C(C)C)c1Br,170 nM
14,Cc1nc2sccn2c1C(=O)NCCc1ccccc1Cl,800 nM
15,c1cc(C2=N[C@H]3CCCC[C@@H]3N2)ccc1OCCCCCOc1ccc(C2=N[C@@H]3CCCC[C@H]3N2)cc1,230 nM
16,O=C(NC1CC1)c1ccc(N2CCC(Cc3ccccc3)CC2)nc1,760 nM
17,OC(CNCc1ccccc1OCc1ccccc1)c1cccc(Cl)c1 (stereo not drawn),220 nM
18,Cc1ccc(N2CCN(CCCCNC(=O)c3ccc(NC(=O)c4ccc(Cl)cc4)cc3)CC2)c(C)c1,760 nM
19,CC1CCCN(Cc2cc(Cl)cc(Cl)c2O)C1 (stereo not drawn),930 nM
20,O=C1COc2ccc3ccccc3c21,700 nM
21,c1ccc(-c2cc(NCCCCNc3cc(-c4ccccc4)nc4ccccc34)c3ccccc3n2)cc1,130 nM
22,CN1CCN(c2ccnc3cc4ccccc4cc23)CC1,950 nM
23,CC(C)Nc1nc(NCCc2cnc[nH]2)nc(Nc2ccc(Oc3ccccc3)cc2)n1,890 nM
24,COc1ccc2c(OC)cccc2c1CNCCCCCCNCc1c(OC)ccc2c(OC)cccc12,690 nM
25,CCCC/C=C(\Cl)c1ccc(O)c2c1C[C@H]1C[C@H]3[C@H](N(C)C)C(=O)C(C(N)=O)=C(O)[C@@]3(O)C(=O)C1=C2O,1090 nM

row,Structure (SMILES),IC50
1,CCCNCc1ccc(-c2ccc(CN(Cc3ccc4c(c3)OCO4)C(=O)Cc3cccnc3)cc2)nc1,860 nM
2,CCOC(=O)c1ccc(NC(=O)c2ccccc2C(=O)O)cc1,920 nM
3,CCCN(CCC)CCCNc1ccc(C(=O)Nc2ccc(OCC)cc2)cc1[N+](=O)[O-],990 nM
4,Cc1ccc(NC(=O)c2ccc3ncccc3c2)cc1OC1CCN(Cc2ccsc2)CC1,930 nM
5,CCn1cnc2c(N3CCCC3=O)cc(C(=O)N[C@@H](Cc3ccccc3)[C@H](O)CNC3CCCCC3)cc21,570 nM
6,O=C(CNCC1CCCCC1)Nc1cc(C(F)(F)F)ccc1Cl,980 nM
7,COc1ccc2c(C)cc(NCCCN(C)C)nc2c1,1100 nM
8,O=C(Nc1ccc(Cl)c(Cl)c1)N1CCc2ccc(OCCCN3CCCCC3)cc2CC1,1520 nM
9,CC(=O)Nc1ccc(CN(Cc2ccc(F)cc2)Cc2cccc(Oc3ccccc3)c2)cc1,940 nM
10,Nc1c2ccccc2nc2ccc(Cl)cc12,810 nM
11,CN1CC=C(c2csc3ccc(NC(=O)Nc4ccc(-c5ccncc5)c5ccccc45)cc23)CC1,800 nM
12,COc1ccc(C2CCN(CCN3CCC(NC(=O)c4ccc(-c5cccc(C(F)(F)F)c5C(F)(F)F)cc4)CC3)CC2)c(OC)c1,420 nM
13,COc1ccc2c(NN=Cc3ccc(N(C)C)cc3)ccnc2c1,660 nM
14,CCCCNCC(O)COc1ccccc1-c1ccc(N/N=C/c2cccc3ccccc23)nn1 (stereo not drawn),890 nM
15,COc1ccc(CNC2Cc3ccccc3C2)cc1-c1ccc(S(=O)(=O)NCCN2CCCC2)cc1,580 nM
16,O=C(NCCN1CCCC1)c1cc(-c2ccc(Cl)c(O)c2)c(-c2ccncc2)o1,1630 nM
17,COc1cccc(NC(=O)c2cc(C(=O)Nc3cccc(OC)c3)cc([N+](=O)[O-])c2)c1,660 nM
18,COC(=O)COc1cc(C(=O)NCCCCN2CCC(c3ccc4c(c3OC)CCCC4)CC2)ccc1-c1ccc(Cl)cc1,260 nM
19,CC[C@H](NC(=O)c1c(CN2CCC(N3CCCCC3)CC2)c(-c2ccccc2)nc2cc(O)ccc12)c1ccccc1,1370 nM
20,O=S(=O)(c1ccc(OC(F)(F)F)cc1)C1C[C@H]2CC[C@@H](C1)N2S(=O)(=O)c1ccc(Cl)c(C(F)(F)F)c1 (stereo partly drawn),560 nM
21,CCN(CC)CCCNc1nccc(N(C)c2ccc(NC(=O)Nc3cc(C(F)(F)F)ccc3F)cc2)n1,1050 nM
22,CCCC1N=C(N)N=C(N)N1c1ccccc1 (stereo not drawn),820 nM
23,Cc1[nH]c(C)c(-c2ccc(Oc3ccc(Cl)cc3)cc2)c(=O)c1Cl,790 nM
24,Nc1nccc2ccc(-c3ccc4nccn4c3)cc12,100 nM
25,CN(Cc1ccc(-c2ccc(C(F)(F)F)cc2)cc1)C(=O)Cn1c(CCc2cccc(F)c2F)cc(=O)c2ccc(OCC3CCCN3C)cc21 (stereo not drawn),1070 nM

row,Structure (SMILES),IC50
1,N#Cc1ccc(-c2ccc(C(=O)NC3CCN(CCN4CCC(c5cn(CCO)c6ccccc56)CC4)CC3)cc2)cc1,760 nM
2,CN1CCCN(Cc2ccc(-c3ccc(NS(=O)(=O)c4cccc5cccnc45)cc3)cc2)CC1,690 nM
3,FC(F)(F)c1ccc(/C=C/c2cncnc2Nc2ccc3nc(Cc4ccccc4)[nH]c3c2)cc1,610 nM
4,CCc1ccc(N2C(=O)C3C(Cc4ccc(OC(C)(C)C)cc4)NC4(C(=O)N(Cc5ccccc5)c5ccc(F)cc54)C3C2=O)cc1 (stereo not drawn),800 nM
5,Cc1ccc2nc(C)cc(NC(=O)Nc3ccc(N(C)C)cc3)c2c1,540 nM
6,COc1cc(C=NNc2cc(C)nc3c(OC)cccc23)cc(OC)c1OC,890 nM
7,Fc1ccc(Nc2ccnc3cc(-c4cccc(CN5CCCCC5)c4)ccc23)c(Cl)c1,30 nM
8,Cc1nc2ccc3ccc(CNc4ccc(C(=O)CC(CCC(=O)O)C(=O)O)cc4)cc3c2c(=O)[nH]1 (stereo not drawn),40 nM
9,CCOc1ccc(C(=O)N2CCOC(CCN3CCC(c4ccccc4)CC3)(c3ccc(Cl)c(Cl)c3)C2)cc1 (stereo not drawn),850 nM
10,COc1cccc(CNC(=O)c2ccnc(-c3cccc(CN(C)C4CCN(C)CC4)c3)c2)c1,830 nM
11,Cc1cccc2[nH]c(-c3cccc(-c4ccc(NC(=O)NCc5ccccc5)cc4)c3)nc12,230 nM
12,CN(CC(=O)Nc1ccc(F)c(F)c1F)c1ncnc2sc(-c3ccccc3)cc12,870 nM
13,COC(=O)c1ccc(Nc2nccc(Nc3ccc(Oc4ccccc4)cc3)n2)cc1,1020 nM
14,CC(C)CCCC(C)(C)NC[C@@H](O)[C@H](Cc1ccccc1)NC(=O)c1cc(NC(C)C)cc(N2CCCCS2(=O)=O)c1,210 nM
15,COc1cccc(-c2ccc(O)c(CNCCc3cccc(F)c3)c2)n1,910 nM
16,Cc1ccc(S(=O)(=O)N2CCN(C(=O)c3cc(-c4ccccc4)n[nH]3)CC2)cc1,600 nM
17,CCc1ccc(C(=O)Nc2cccc(CN3CCCN(Cc4ccc(O)cc4)CC3)c2)cc1,1030 nM
18,CCc1nc2nc(C)cc(Nc3ccc4c(c3)OCCO4)n2n1,1290 nM
19,Cc1ccc(-n2c(=O)c3c(n4c(SC(C)C)nnc24)-c2ccccc2CC32CCCCC2)cc1,950 nM
20,COc1cc2nc(NCCc3ccccc3)nc(NCc3ccc(C#N)cc3)c2cc1OC,150 nM
21,O=C(NC1CCC(N2CCC(Cc3ccc(F)cc3)CC2)CC1)c1cc2ccccc2[nH]1 (stereo not drawn),870 nM
22,Oc1ccccc1CN1CCCC(COC(c2ccc(F)cc2)c2ccc(F)cc2)C1 (stereo not drawn),780 nM
23,Cc1cc(C)n(Cc2ccc(C(=O)NCC3CCCCC3)cc2)n1,960 nM
